Several values for one entry are separate records, joined by “and”; a condition that tells them apart may be missing. Equal entries are not always repeated. Where two headings read alike, the source gives them in different places.
Columns and labels:
[1] = target: T1, Human recombinant PDE10A (hPDE10A) (Homo sapiens, UniProt Q9Y233); assay: In vitro assay PDE10A, human clone (SPA, 3H-cAMP hydrolysis); type: biochemical; conditions: human clone (h), default; for Emax: read-out: hPDE10A2 Emax; for IC50: read-out: hPDE10A2 pIC50 (converted)
T1 construct: His tag (inferred from metal chelate purification); made in house; host or cells: Sf9 insect cells (baculovirus)
Outline: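 Human recombinant PDE10A was expressed in Sf9 cells via baculovirus and incubated with compound in 50 mM Tris pH 7.8, 8.3 mM MgCl2, 1.7 mM EGTA. Substrate was 60 nM cAMP plus 0.008 μCi 3H-cAMP for 60 min at room temperature, read by SPA scintillation counting. Controls used 1% DMSO, and blanks omitted enzyme.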

[2] = target: T2, Human recombinant PDE3A (hPDE3A) (Homo sapiens, UniProt Q14432); assay: In vitro assay PDE3A (SPA, 3H-cAMP hydrolysis); type: biochemical; conditions: for IC50: hPDE3B pIC50, read-out: pIC50 (converted); for Emax: read-out: hPDE3B Emax, read-out: Emax;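 for all read-outs here: the method names PDE3A and the table heading PDE3B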
T2 construct: purchased Scottish Biomedical; host or cells: Sf9 insect cells
Outline: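 Human PDE3A, cloned from brain, as partially purified Sf9 lysate. Substrate 0.4 μM cAMP plus [3H]-cAMP (2.4 μCi/ml final) in 50 mM Tris pH 7.8, 8.3 mM MgCl2, 1.7 mM EGTA, 60 min at room temperature, 1% DMSO final. Hydrolysis read by SPA scintillation counting against no-enzyme blanks and DMSO controls.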

[3] = target: T3, Human recombinant PDE2A (hPDE2A) (Homo sapiens, UniProt O00408); assay: In vitro assay PDE2A (SPA, 3H-cGMP hydrolysis); type: biochemical; conditions: for Emax: read-out: hPDE2A Emax
T3 construct: His tag (inferred from metal chelate purification); made in house; host or cells: Sf9 insect cells (baculovirus)

PDE2A = target: T4, PDE2A (Rattus norvegicus, UniProt Q01062); assay: PDE2 occupancy by test compounds, ex-vivo autoradiography with [3H]B-17a; type: in vivo, Male Wistar rats; conditions: for receptor occupancy at 10 mg/kg: percentage receptor occupancy, ex-vivo autoradiography, striatum; for ED50: drug dose producing 50% receptor occupancy, read-out: PDE Occupancy ED50
T4 construct: Twenty μm-thick striatal sections were cut; from tissue; host or cells: rat brain, striatal sections
T4 sequence (Q01062 1-928): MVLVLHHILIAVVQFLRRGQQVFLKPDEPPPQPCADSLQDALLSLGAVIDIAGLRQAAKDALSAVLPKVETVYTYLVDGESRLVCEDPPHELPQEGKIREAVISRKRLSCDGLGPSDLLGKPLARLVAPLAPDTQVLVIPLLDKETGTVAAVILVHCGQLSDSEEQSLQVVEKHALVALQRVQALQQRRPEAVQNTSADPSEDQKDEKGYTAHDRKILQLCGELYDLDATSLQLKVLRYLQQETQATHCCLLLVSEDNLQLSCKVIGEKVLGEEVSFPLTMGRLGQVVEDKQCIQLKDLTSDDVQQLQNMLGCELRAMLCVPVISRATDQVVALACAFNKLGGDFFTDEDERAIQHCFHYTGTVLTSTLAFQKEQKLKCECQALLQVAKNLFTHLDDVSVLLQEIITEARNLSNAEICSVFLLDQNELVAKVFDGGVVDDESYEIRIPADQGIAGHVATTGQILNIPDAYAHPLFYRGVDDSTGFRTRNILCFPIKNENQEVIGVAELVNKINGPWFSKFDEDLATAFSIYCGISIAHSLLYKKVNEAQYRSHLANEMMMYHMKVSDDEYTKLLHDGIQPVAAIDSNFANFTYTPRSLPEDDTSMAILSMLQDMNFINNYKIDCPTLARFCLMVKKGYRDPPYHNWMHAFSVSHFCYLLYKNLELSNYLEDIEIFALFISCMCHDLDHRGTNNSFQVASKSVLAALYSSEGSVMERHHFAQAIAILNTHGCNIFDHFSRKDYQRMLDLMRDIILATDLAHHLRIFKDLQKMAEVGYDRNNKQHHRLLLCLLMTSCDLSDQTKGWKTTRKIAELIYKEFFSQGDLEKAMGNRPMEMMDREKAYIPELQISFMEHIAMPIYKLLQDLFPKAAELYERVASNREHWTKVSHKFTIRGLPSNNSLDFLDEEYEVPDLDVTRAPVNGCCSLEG

[4] = human recombinant PDE2A, 10 μM cGMP substrate, read-out: hPDE2A pIC50 (converted)
[5] = read-out: hPDE2A pIC50 (converted)
[6] = hPDE2A pIC50, human recombinant PDE2A, 10 μM cGMP substrate

T2 sequence (Q14432 whole entry): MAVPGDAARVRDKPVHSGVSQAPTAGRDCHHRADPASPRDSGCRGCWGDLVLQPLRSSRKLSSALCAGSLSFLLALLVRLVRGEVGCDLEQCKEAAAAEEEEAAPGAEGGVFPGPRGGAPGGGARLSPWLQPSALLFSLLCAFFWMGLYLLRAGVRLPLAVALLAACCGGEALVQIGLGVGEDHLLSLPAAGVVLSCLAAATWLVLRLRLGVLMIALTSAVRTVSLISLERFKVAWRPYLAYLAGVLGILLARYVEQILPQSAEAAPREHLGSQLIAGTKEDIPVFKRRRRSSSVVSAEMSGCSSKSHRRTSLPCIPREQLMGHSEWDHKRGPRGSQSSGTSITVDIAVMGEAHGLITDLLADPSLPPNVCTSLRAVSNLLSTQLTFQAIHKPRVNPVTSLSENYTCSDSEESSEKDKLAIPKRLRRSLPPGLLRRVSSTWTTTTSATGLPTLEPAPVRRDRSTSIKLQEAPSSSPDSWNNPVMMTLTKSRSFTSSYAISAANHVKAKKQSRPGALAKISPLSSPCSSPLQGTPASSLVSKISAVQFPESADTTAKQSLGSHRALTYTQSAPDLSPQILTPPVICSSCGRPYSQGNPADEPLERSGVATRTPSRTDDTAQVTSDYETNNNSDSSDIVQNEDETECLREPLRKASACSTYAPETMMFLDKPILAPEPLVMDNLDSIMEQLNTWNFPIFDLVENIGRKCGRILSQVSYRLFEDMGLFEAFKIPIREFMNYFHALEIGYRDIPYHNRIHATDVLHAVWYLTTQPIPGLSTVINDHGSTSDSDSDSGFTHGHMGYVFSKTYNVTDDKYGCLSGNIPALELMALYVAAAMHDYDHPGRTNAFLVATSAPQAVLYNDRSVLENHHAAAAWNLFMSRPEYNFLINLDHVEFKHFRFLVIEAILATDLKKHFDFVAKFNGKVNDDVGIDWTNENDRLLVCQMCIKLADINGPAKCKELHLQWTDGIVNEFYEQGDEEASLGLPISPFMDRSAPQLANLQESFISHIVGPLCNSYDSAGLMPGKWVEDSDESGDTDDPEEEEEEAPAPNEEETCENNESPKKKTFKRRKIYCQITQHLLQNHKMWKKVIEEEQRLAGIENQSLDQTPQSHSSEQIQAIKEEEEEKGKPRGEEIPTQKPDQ
T3 sequence (O00408 whole entry): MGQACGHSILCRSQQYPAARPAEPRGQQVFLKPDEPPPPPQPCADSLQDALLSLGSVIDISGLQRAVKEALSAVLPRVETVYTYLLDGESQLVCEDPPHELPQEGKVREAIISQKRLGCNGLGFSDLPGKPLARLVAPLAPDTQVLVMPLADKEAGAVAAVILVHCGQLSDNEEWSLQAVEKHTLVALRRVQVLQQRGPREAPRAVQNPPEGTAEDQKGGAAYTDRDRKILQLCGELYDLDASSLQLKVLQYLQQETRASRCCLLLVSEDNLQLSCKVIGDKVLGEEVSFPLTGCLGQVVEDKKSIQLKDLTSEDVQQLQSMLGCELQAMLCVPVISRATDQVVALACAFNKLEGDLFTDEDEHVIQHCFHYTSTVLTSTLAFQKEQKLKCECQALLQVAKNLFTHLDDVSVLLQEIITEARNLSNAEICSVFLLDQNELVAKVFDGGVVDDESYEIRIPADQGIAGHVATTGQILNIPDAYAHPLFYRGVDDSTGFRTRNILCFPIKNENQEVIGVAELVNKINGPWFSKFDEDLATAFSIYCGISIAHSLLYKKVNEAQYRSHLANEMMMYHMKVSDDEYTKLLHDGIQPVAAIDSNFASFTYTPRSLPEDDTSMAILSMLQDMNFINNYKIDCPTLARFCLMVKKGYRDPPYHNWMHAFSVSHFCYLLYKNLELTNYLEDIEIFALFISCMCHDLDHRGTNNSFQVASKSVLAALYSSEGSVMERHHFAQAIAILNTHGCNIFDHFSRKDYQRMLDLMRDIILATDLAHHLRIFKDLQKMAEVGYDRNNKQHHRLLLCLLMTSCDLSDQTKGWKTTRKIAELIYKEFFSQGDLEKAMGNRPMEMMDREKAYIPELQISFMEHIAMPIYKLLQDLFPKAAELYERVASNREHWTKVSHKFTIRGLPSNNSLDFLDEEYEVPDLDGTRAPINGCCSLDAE
T1 sequence (Q9Y233 267-1055): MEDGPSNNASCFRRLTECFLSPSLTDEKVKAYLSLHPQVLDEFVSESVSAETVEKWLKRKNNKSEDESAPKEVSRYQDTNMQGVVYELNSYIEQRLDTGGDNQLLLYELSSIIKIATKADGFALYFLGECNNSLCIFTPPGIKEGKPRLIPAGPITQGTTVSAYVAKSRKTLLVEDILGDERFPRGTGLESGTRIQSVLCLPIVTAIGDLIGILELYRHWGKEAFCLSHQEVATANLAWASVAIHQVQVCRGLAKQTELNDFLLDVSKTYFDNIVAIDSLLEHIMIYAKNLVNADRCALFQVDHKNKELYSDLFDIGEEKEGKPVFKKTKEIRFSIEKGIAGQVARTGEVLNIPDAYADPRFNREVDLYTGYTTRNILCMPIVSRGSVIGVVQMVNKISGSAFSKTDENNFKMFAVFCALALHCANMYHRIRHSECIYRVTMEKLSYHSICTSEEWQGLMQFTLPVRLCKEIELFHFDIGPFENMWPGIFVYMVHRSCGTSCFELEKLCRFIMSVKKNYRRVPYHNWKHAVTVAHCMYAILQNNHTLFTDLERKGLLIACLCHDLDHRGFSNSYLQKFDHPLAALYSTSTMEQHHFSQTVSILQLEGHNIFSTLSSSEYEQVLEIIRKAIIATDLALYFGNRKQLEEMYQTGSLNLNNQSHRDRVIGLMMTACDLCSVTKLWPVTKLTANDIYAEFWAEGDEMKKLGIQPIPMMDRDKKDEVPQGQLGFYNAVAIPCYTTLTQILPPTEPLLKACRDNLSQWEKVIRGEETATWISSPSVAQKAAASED

SMILES | Emax [1] [%] | IC50 [1] | IC50 [2] [nM] | Emax [2] [%] | IC50 [3, 4] [nM] | Emax ([3]; human recombinant PDE2A) [%] | Emax [3] [%] | IC50 [3, 5] [nM] | receptor occupancy at 10 mg/kg (PDE2A; po, route PO (oral)) [%] | receptor occupancy at 10 mg/kg (PDE2A; sc, route SC (subcutaneous)) [%] | hPDE10A2 Emax [1] | ED50 (PDE2A; route PO (oral)) [mg/kg] | IC50 ([3]; hPDE2A pIC50) [nM] | IC50 [3, 6] [nM]
C[C@@H]1CCN(C(=O)c2nc3ccccc3o2)C[C@H]1c1cc(C(F)F)nc2ncnn12 [Compound 47] | 92 | 646 nM | 3390 | 80 | 2.51 | 99 | 99 | 2.51 | 5 | – | – | – | – | –
Cc1c(C(=O)N2CC[C@@H](C)[C@H](c3cc(C(F)F)nc4ncnn34)C2)oc2ccccc12 [Compound 48] | 100 | 43.7 nM | 87.1 | 99 | 0.174 | 100 | 100 | 0.174 | – | 96 | – | – | – | –
Cc1nc2cccc(C(=O)N3CC[C@@H](C)[C@H](c4cc(C(F)F)nc5ncnn45)C3)c2o1 [Compound 50] | 93 | 724 nM | > 10000 | 61 | 3.09 | 100 | 100 | 3.09 | -30 | – | – | – | – | –
Cc1ccc2cc(C(=O)N3CC[C@@H](C)[C@H](c4cc(C(F)F)nc5ncnn45)C3)c(C)nc2c1 [Compound 60] | 97 | 151 nM | 1100 | 92 | 0.851 | 100 | 100 | 0.851 | 32 | – | – | – | – | –
COc1ccc(C(=O)N2CC[C@@H](C)[C@H](c3cc(C(F)F)nc4ncnn34)C2)nc1 [Compound 66] | 79 | 2290 nM | > 10000 | 48 | 17.4 | 99 | 99 | 17.4 | -14 | – | – | – | – | –
COc1ncc(C(=O)N2CC[C@@H](C)[C@H](c3cc(C(F)F)nc4ncnn34)C2)cc1C1CC1 [Compound 73] | 98 | 219 nM | 2630 | 83 | 1.95 | 101 | 101 | 1.95 | 0 | – | – | – | – | –
COc1c(C)cc(C(=O)N2CC[C@@H](C)[C@](F)(c3cc(C(F)F)nc4ncnn34)C2)cc1C [Compound 74] | 36 | > 10000 nM | > 10000 | 30 | 30.2 | 101 | 101 | 30.2 | – | 14 | – | – | – | –
Cc1cc(C(=O)N2CC[C@@H](C)[C@H](c3cc(C(F)F)nc4ncnn34)C2)cc(C)c1Cl [Compound 76] | 101 | 31.6 nM | 1230 | 91 | – | – | 99 | – | 17 | – | – | – | 0.229 | 0.229
Cc1cc(C(=O)N2CC[C@@H](C)[C@H](c3cc(C(F)F)nc4ncnn34)C2)cc(C)c1C#N [Compound 78] | 98 | 105 nM | 1580 | 87 | – | – | 102 | – | – | 77 | – | – | 1 | 1
CCc1cc(C(=O)N2CC[C@@H](C)[C@H](c3cc(C(F)F)nc4ncnn34)C2)cc(C)n1 [Compound 80] | 98 | 81.3 nM | 4170 | 71 | 0.794 | 100 | 100 | 0.794 | – | 52 | – | 8.63 | – | –
Cc1cc(C(=O)N2CC[C@@H](C)[C@](F)(c3cc(C(F)F)nc4ncnn34)C2)cc(C)n1 [Compound 82] | 18 | > 10000 nM | > 10000 | 9 | 33.9 | 101 | 101 | 33.9 | 28 | – | – | – | – | –
Cc1cc(C(=O)N2CC[C@@H](C)[C@H](c3cc(C(F)F)nc4ncnn34)C2)cc(Cl)n1 [Compound 83] | 98 | 97.7 nM | 7940 | 58 | – | – | 100 | – | 82 | – | – | – | 0.933 | 0.933

More lines, main results first:

Emax [1] [%] | IC50 [1] | IC50 [2] [nM] | Emax [2] [%] | IC50 [3, 4] [nM] | Emax ([3]; human recombinant PDE2A) [%] | Emax [3] [%] | IC50 [3, 5] [nM] | receptor occupancy at 10 mg/kg (PDE2A; po, route PO (oral)) [%] | receptor occupancy at 10 mg/kg (PDE2A; sc, route SC (subcutaneous)) [%] | hPDE10A2 Emax [1] | ED50 (PDE2A; route PO (oral)) [mg/kg] | SMILES | IC50 ([3]; hPDE2A pIC50) [nM] | IC50 [3, 6] [nM]
88 | 1320 nM | > 10000 | 29 | 5.01 | 99 | 99 | 5.01 | 2 | – | – | – | C[C@@H]1CCN(C(=O)c2cc(Cl)ncc2Cl)C[C@H]1c1cc(C(F)F)nc2ncnn12 [Compound 43] | – | –
86 | 1260 nM | > 10000 | 44 | 5.5 | 101 | 101 | 5.5 | 20 | – | – | – | Cc1cc(C(=O)N2CC[C@@H](C)[C@H](c3cc(C(F)F)nc4ncnn34)C2)c(Cl)cn1 [Compound 51] | – | –
89 | 776 nM | 6760 | 62 | 5.62 | 100 | 100 | 5.62 | 22 | – | – | – | COc1cc(C(=O)N2CC[C@@H](C)[C@H](c3cc(C(F)F)nc4ncnn34)C2)c(C)cn1 [Compound 53] | – | –
89 | 661 nM | 9550 | 51 | 4.17 | 100 | 100 | 4.17 | 39 | – | – | – | C[C@@H]1CCN(C(=O)c2cc(Cl)ncc2F)C[C@H]1c1cc(C(F)F)nc2ncnn12 [Compound 54] | – | –
96 | 355 nM | 6760 | 62 | 1.58 | 99 | 99 | 1.58 | 7 | – | – | – | C[C@@H]1CCN(C(=O)c2cnc(Cl)c(Cl)c2)C[C@H]1c1cc(C(F)F)nc2ncnn12 [Compound 64] | – | –
85 | 1380 nM | – | 50 | 6.31 | 99 | 99 | 6.31 | – | 31 | – | – | Cc1nccc(C(=O)N2CC[C@@H](C)[C@H](c3cc(C(F)F)nc4ncnn34)C2)c1F [Compound 68] | – | –
93 | 331 nM and 380 nM | 5130 | 66 | 1.74 | 102 | 102 | 1.95 | – | 65 | 95 | 6.4 | Cc1cc(C(=O)N2CC[C@@H](C)[C@H](c3cc(C(F)F)nc4ncnn34)C2)c(F)c(C)n1 [Compound 70] | – | –
94 | 339 nM | > 1000 | 32 | 1.86 | 98 | 98 | 1.86 | – | 49 | – | – | C[C@@H]1CCN(C(=O)c2cc(Cl)nc(Cl)c2F)C[C@H]1c1cc(C(F)F)nc2ncnn12 [Compound 71] | – | –
